According to patent publication US11247965B2 (VenatoRx Pharmaceuticals, Inc., priority 2017, dated 2022):

Legend:
[1] = system: HBV replication in HepAD38 cells; assay: Anti-HBV activity in HepAD38 cells, extracellular HBV DNA by QPCR; format: cell-based, HBV (genotype D, serotype ayw); details: Hepatitis B virus, HePAD38, 168 h, read-out: Anti-HBV EC50, HepAD38 cells, extracellular HBV DNA by QPCR, 7 days of incubation
Description: The anti-HBV activity of the Capsid Assembly Modulators (CAMs) was evaluated in a cell based assay utilizing the human hepatoma cell line HepAD38 (Ladner, S K., et al., 1998). HepAD38 cells were derived from the parental line, HepG2, that were stably transfected with a construct containing an HBV genome (genotype D, serotype ayw) under the control of a tetracycline repressible CMV promoter. Upon removal of tetracycline, viral pre-genomic RNA (pgRNA) and mRNAs are expressed and infectious viral particles are assembled and secreted into the culture medium providing a reliable, robust system to measure multiple steps of the HBV life cycle. Disruption of capsid formation results in reduced levels of DNA-containing virus particles that are released into the culture supernatant. To quantify the effect of CAMs on HBV replication, we developed a sensitive QPCR-based assay that measures extracellular HBV DNA levels upon treatment of HepAD38 cells with various concentrations of test compounds.
HepAD38 cells were maintained in DMEM/F12 medium containing 10% FBS, 400 μg/mL G418 and 0.3 μg/mL tetracycline (tet+medium) to maintain repression of HBV replication. To evaluate each compound, HepAD38 cells were seeded into 24-well collagen coated culture plates (Corning BioCoat) at a density of 200,000 cells per well in 1 mL of tet+medium and allowed to adhere overnight at 37° C., 5% CO2 in a humidified incubator. The following day, test articles were subjected to half-logo serial dilutions, ranging from 30 μM to 10 nM, in 100% DMSO at 200× the desired final assay concentration. Tetracycline was removed from the cells by aspirating the tet+medium and washing the cells once with growth medium lacking tetracycline (tet-). Various concentrations of each compound were added to the appropriate wells (1:200 dilution) and the plates were returned to the incubator. Following 7 days of incubation, culture supernatants were harvested and HBV DNA levels were evaluated by QPCR and compared to the vehicle treated control wells (i.e. DMSO alone).
To quantify HBV DNA levels, cell culture supernatants were diluted 1:10 in sterile, nuclease-free water (Gibco). The diluted supernatants were subsequently added to a PCR master mix containing 1× Roche Light Cycler Master Mix, 0.5 μM forward primer, 0.5 μM reverse primer (Fwd:
0.2 μM Roche Universal Probe Library Probe 25. The volume was brought to 20 μL with nuclease-free water and amplification of the HBV target sequence was performed using a Roche LightCycler 480 QPCR instrument. PCR extended out to 45 cycles with each cycle consisting of a denaturation step at 95° C. for 10 sec., followed by an annealing step at 60° C. for 10 sec. and a brief extension step at 72° C. for 1 sec.
Extracellular HBV DNA levels, expressed in copies/mL, were determined by comparison to a standard curve (10^2-10^9 copies/mL) using the Roche LightCycler analysis software. These values were subsequently converted to percent inhibition of HBV replication by dividing the HBV DNA levels in the experimental samples with those obtained from the vehicle control (˜1-2×10^5 copies/mL). Potency, expressed as an EC50 (the effective concentration required to inhibit […] of HBV replication), was calculated from the dose-response curve using a 4-parameter non-linear regression analysis (GraphPad Prism). The nucleoside analog inhibitor entecavir was used as a positive control to validate each assay run. The EC50 value of entecavir in the HepAD38 assay was 0.5 nM, as previously reported in the literature.

[2] = In vitro cytotoxicity, MTT cell viability assay in HepG2 cells; format: cell-based; details: human, Cytotoxicity CC50
Description: To evaluate antiviral selectivity, the cytotoxic activity of each compound was determined using a standard cell viability assay performed on the parental HepG2 cell line. Cell viability was determined by measuring the conversion of 3-(4,5-dimethylthiazol-2-yl)-2,5-diphenyltetrazolium bromide (MTT) to the insoluble formazan salt crystal that occurs in live cells. Briefly, HepG2 cells were seeded in 96-well plates at a density of 20,000 cells per well in EMEM+10% FBS (complete growth medium) and allowed to adhere overnight in a 37° C., 5% CO2 humidified incubator. The next day, test agents were prepared by performing 8 half-log10 serial dilutions in 100% DMSO at 200× the final desired concentration in the assay. Compounds were tested over a range of concentrations from 30 μM to 1.0 nM in the assay. HepG2 cells were incubated in the presence of various concentrations of CAMs for 7 days in a 37° C., 5% CO2 humidified incubator. At the completion of the 7-day incubation period, MTT reagent was added to each well and the mixture was incubated for an additional 3-4 hours. At the completion of the incubation period, all wells were aspirated to remove the culture medium. The formazan crystals were solubilized from the cell monolayers with 100% DMSO. Plates were briefly mixed on an orbital shaker and absorbance was measured at 492 nm using a Perkin-Elmer EnVision multi-label plate reader. All absorbance values were converted to a percentage of the signal obtained from the vehicle treated controls. Absorbance values at 492 nm are directly proportional to the number of viable cells present in the sample. A CC50 value (cytotoxic concentration that results in loss of 50% cell viability) was calculated from the dose-response curve by 4-parameter, non-linear regression analysis using the GraphPad Prism software. The positive control compound, staurosporine, reduced the viability of HepG2 cells in a dose-dependent manner (CC50=100 nM).

With Cc1cc(NC(=O)c2ccc(F)c(C(F)(F)C(=O)N3C4CC[C@@H]3C[C@@H](C(N)=O)C4)c2)ccc1F [Example 257, (1R,3s,5S)-8-(2,2-difluoro-2-(2-fluoro-5-((4-fluoro-3-methylphenyl)carbamoyl)phenyl)acetyl)-8-azabicyclo[3.2.1]octane-3-carboxamide] as the compound, how does the EC50 [1] read?
Its EC50 is under 5 µM.

What about the CC50 at 7 days [2] of the same compound?
Its CC50 at 7 days is 5 to 30 µM.

Which results are given for NC(=O)c1cc(NC(=O)c2ccc(Cl)c(C(F)(F)C(=O)N3CCC(O)CC3)c2)ccc1F [Example 60, N-(3-carbamoyl-4-fluorophenyl)-4-chloro-3-(1,1-difluoro-2-(4-hydroxypiperidin-1-yl)-2-oxoethyl)benzamide]?
EC50 [1]: 5 to 30 µM; CC50 at 7 days [2]: > 30 µM

Which results are given for Cc1cc(NC(=O)c2ccc(F)c(C(F)(F)C(=O)N3C4CC[C@@H]3C[C@@H](O)C4)c2)cc(F)c1F [Example 246, 3-(1,1-difluoro-2-((1R,3s,5S)-3-hydroxy-8-azabicyclo[3.2.1]octan-8-yl)-2-oxoethyl)-N-(3,4-difluoro-5-methylphenyl)-4-fluorobenzamide]?
EC50 [1]: < 5 µM; CC50 at 7 days [2]: 5 to 30 µM

For Cc1cc(NC(=O)c2cc(C(F)(F)C(=O)NC(C)C)n(C)c2)ccc1F [Example 102, 5-(1,1-difluoro-2-(isopropylamino)-2-oxoethyl)-N-(4-fluoro-3-methylphenyl)-1-methyl-1H-pyrrole-3-carboxamide], which EC50 [1] is on record?
Its EC50 is under 5 µM.

And the CC50 at 7 days [2]?
Its CC50 at 7 days is over 30 µM.

For Cc1cc(NC(=O)c2ccc(Br)c(C(F)(F)C(=O)N3CCC(O)CC3)c2)ccc1F [Example 62, 4-bromo-3-(1,1-difluoro-2-(4-hydroxypiperidin-1-yl)-2-oxoethyl)-N-(4-fluoro-3-methylphenyl)benzamide], which EC50 [1] is on record?
Its EC50 is under 5 µM.

And the CC50 at 7 days [2]?
Its CC50 at 7 days is over 30 µM.

With Cc1cc(NC(=O)c2csc(C(F)(F)C(=O)N3CCCC3)c2)ccc1F [Example 59, 5-(1,1-difluoro-2-oxo-2-(pyrrolidin-1-yl)ethyl)-N-(4-fluoro-3-methylphenyl)thiophene-3-carboxamide] as the compound, how does the EC50 [1] read?
The EC50 was under 5 µM.

What about the CC50 at 7 days [2] of the same compound?
Its CC50 at 7 days is over 30 µM.

With Cc1cc(NC(=O)c2ccc(F)c(C(F)(F)C(=O)NCB(O)O)c2)ccc1F [Example 156, ((2,2-difluoro-2-(2-fluoro-5-((4-fluoro-3-methylphenyl)carbamoyl)phenyl)acetamido)methyl)boronic acid] as the compound, how does the EC50 [1] read?
The EC50 was 5 to 30 µM.

And the CC50 at 7 days [2]?
Its CC50 at 7 days is 5 to 30 µM.

For Cc1cc(NC(=O)c2ccc(F)c(C(F)(F)C(=O)N3CC[C@H](N)C3)c2)ccc1F [Example 234, (S)-3-(2-(3-aminopyrrolidin-1-yl)-1,1-difluoro-2-oxoethyl)-4-fluoro-N-(4-fluoro-3-methylphenyl)benzamide], which EC50 [1] is on record?
Its EC50 is 5 to 30 µM.

What about the CC50 at 7 days [2] of the same compound?
The CC50 at 7 days was over 30 µM.

Which results are given for Cc1cc(NC(=O)c2cc(C(F)(F)C(=O)NC3(C)CCCOC3)n(C)c2)ccc1F (centres unmarked) [Example 133, 5-(1,1-difluoro-2-((3-methyltetrahydro-2H-pyran-3-yl)amino)-2-oxoethyl)-N-(4-fluoro-3-methylphenyl)-1-methyl-1H-pyrrole-3-carboxamide]?
EC50 [1]: < 5 µM; CC50 at 7 days [2]: > 30 µM

Which results are given for Cc1cc(NC(=O)c2ccc(F)c(C(Cl)(Cl)C(=O)N3CC=C(B(O)O)CC3)c2)ccc1F [Example 151, (1-(2,2-dichloro-2-(2-fluoro-5-((4-fluoro-3-methylphenyl)carbamoyl)phenyl)acetyl)-1,2,3,6-tetrahydropyridin-4-yl)boronic acid]?
EC50 [1]: < 5 µM; CC50 at 7 days [2]: > 30 µM

Which EC50 [1] does the source give for Cc1cc(NC(=O)c2ccc(F)c(C(F)(F)C(=O)N[C@H]3CC[C@H](O)CC3)c2)ccc1F [Example 79, 3-(1,1-difluoro-2-(((1r,4r)-4-hydroxycyclohexyl)amino)-2-oxoethyl)-4-fluoro-N-(4-fluoro-3-methylphenyl)benzamide] here?
The EC50 was 5 to 30 µM.

What about the CC50 at 7 days [2] of the same compound?
Its CC50 at 7 days is over 30 µM.

What does the source list for O=C(Nc1ccc(F)c(F)c1)c1ccc(F)c(C(F)(F)C(=O)N2CCCCC(O)C2)c1 (centres unmarked) [Example 25, 3-(1,1-difluoro-2-(3-hydroxyazepan-1-yl)-2-oxoethyl)-N-(3,4-difluorophenyl)-4-fluorobenzamide]?
EC50 [1]: < 5 µM; CC50 at 7 days [2]: 5 to 30 µM

With Cc1cc(NC(=O)c2ccc(F)c(C(F)(F)C(=O)N3C4CC[C@@H]3C[C@H](O)C4)c2)cc(F)c1F [Example 249, 3-(1,1-difluoro-2-((1R,3r,5S)-3-hydroxy-8-azabicyclo[3.2.1]octan-8-yl)-2-oxoethyl)-N-(3,4-difluoro-5-methylphenyl)-4-fluorobenzamide] as the compound, how does the EC50 [1] read?
Its EC50 is under 5 µM.

What about the CC50 at 7 days [2] of the same compound?
The CC50 at 7 days was 5 to 30 µM.

With Cc1cc(NC(=O)c2ccc(F)c(C(F)(F)C(=O)N3[C@@H]4CC[C@H]3C[C@@H](O)C4)c2)cc(F)n1 [Example 224, 3-(1,1-difluoro-2-((1R,3r,5S)-3-hydroxy-8-azabicyclo[3.2.1]octan-8-yl)-2-oxoethyl)-4-fluoro-N-(2-fluoro-6-methylpyridin-4-yl)benzamide] as the compound, how does the EC50 [1] read?
Its EC50 is under 5 µM.

And the CC50 at 7 days [2]?
The CC50 at 7 days was under 5 µM.

What does the source list for Cc1cc(NC(=O)c2cccc(C(F)(F)C(=O)N3CCC(O)CC3)c2)ccc1F [Example 14, 3-(1,1-difluoro-2-(4-hydroxypiperidin-1-yl)-2-oxoethyl)-N-(4-fluoro-3-methylphenyl)benzamide]?
EC50 [1]: < 5 µM; CC50 at 7 days [2]: 5 to 30 µM

Which EC50 [1] does the source give for CC[C@@H](C)NC(=O)C(F)(F)c1c(C(=O)Nc2ccc(F)c(C)c2)ccn1C [Example 110, (R)-2-(2-(sec-butylamino)-1,1-difluoro-2-oxoethyl)-N-(4-fluoro-3-methylphenyl)-1-methyl-1H-pyrrole-3-carboxamide] here?
Its EC50 is over 30 µM.

What about the CC50 at 7 days [2] of the same compound?
Its CC50 at 7 days is over 30 µM.

What does the source list for O=C(Nc1ccc(F)c(F)c1)c1ccc(F)c(C(F)(F)C(=O)N[C@H]2CCOC2)c1 [Example 3, (S)-3-(1,1-difluoro-2-oxo-2-((tetrahydrofuran-3-yl)amino)ethyl)-N-(3,4-difluorophenyl)-4-fluorobenzamide]?
EC50 [1]: 5 to 30 µM; CC50 at 7 days [2]: 5 to 30 µM

Which EC50 [1] does the source give for Cc1cc(NC(=O)c2cc(Br)c(C(F)(F)C(=O)N3CCC(O)CC3)n2C)ccc1F [Example 98, 4-bromo-5-(1,1-difluoro-2-(4-hydroxypiperidin-1-yl)-2-oxoethyl)-N-(4-fluoro-3-methylphenyl)-1-methyl-1H-pyrrole-2-carboxamide] here?
Its EC50 is over 30 µM.

What about the CC50 at 7 days [2] of the same compound?
Its CC50 at 7 days is over 30 µM.

With Cc1cc(NC(=O)c2ccc(F)c(C(F)(F)C(=O)N3C4CC[C@@H]3C[C@@H](NS(C)(=O)=O)C4)c2)ccc1F [Example 261, 3-(1,1-difluoro-2-((1R,3s,5S)-3-(methylsulfonamido)-8-azabicyclo[3.2.1]octan-8-yl)-2-oxoethyl)-4-fluoro-N-(4-fluoro-3-methylphenyl)benzamide] as the compound, how does the EC50 [1] read?
Its EC50 is under 5 µM.

And the CC50 at 7 days [2]?
The CC50 at 7 days was under 5 µM.
